According to patent publication US7166593B2, “Glucocorticoid receptor modulators” (Pfizer, Inc., priority 2000, dated 2007):

Columns and labels:
[1] = tested on: IL-1 (Interleukin-1) induced IL-8 (Interleukin-8) production in SW1353 human chondrosarcoma cells; experiment: glucocorticoid inhibition of IL-1 induced IL-8 production in human chondrosarcoma cells; assay type: cell-based; conditions: 20 ng/ml IL-1 beta, 24 hours after addition of IL-1, IL-8 ELISA, read-out: IC50, inhibitor of IL-8 expression
Method: (§1) This assay, the glucocorticoid inhibition of IL-1 (Interleukin-1) induced MMP-1 (Matrix Metalloproteinase-1) and IL-8 (Interleukin-8) production in human chondrosarcoma cells, is conducted as follows: SW1353 human chondrosarcoma cells (obtained from ATCC) from passage 12 through passage 19 are used in a 96 well format assay. Cells are plated at confluence into 96 well plates in DMEM (Dulbecco's Modified Eagle Medium) with 10% fetal bovine serum and incubated at 37° C., 5% CO2. After 24 hours, serum containing media is removed and replaced with 200 ul/well DMEM containing 1 mg/L insulin, 2 g/L lactalbumin hydrosylate, and 0.5 mg/L ascorbic acid and returned to incubation at 37° C., 5% CO2. […] IL-8 production is assessed using the Quantikine human IL-8 ELISA kit from R&D Systems (D8050) on samples diluted 60. fold in RD5P Calibrator Diluent, following the manufacturer's protocol. The percent of the average IL-1 control is determined for the average of each of the triplicate samples following subtraction of the average signal from untreated cells. IC50's are determined from log linear plots of the percent of control versus the concentration of inhibitor. […] MMP-1 production is assessed via the Bio-Trak MMP-1 ELISA kit from Amersham (RPN2610) on 100 ul of neat sample following the manufacturer's protocol. […]

[2] = tested on: IL-1 (Interleukin-1) induced MMP-1 (Matrix Metalloproteinase-1) production in SW1353 human chondrosarcoma cells; experiment: glucocorticoid inhibition of IL-1 induced MMP-1 production in human chondrosarcoma cells; assay type: cell-based; conditions: 20 ng/ml IL-1 beta, 72 hours after IL-1 addition, MMP-1 ELISA, read-out: IC50, inhibitor of MMP1 expression
Method: as §1

SMILES: C[C@@H]1C[C@H]2[C@@H]3CCC4=CC(=O)C=C[C@]4(C)[C@@]3(F)[C@@H](O)C[C@]2(C)[C@@]1(O)C(=O)CO [Dexamethasone, (11β,16α)-9-fluoro-11,17,21-trihydroxy-16-methylpregna-1,4-diene-3,20-dione]
- IC50 [1]: 5 nM
- IC50 [2]: 5 nM
